Entries after “also recorded” stand apart in the source; their conditions may differ.
Assays:
A2780 ovarian cells = experiment: Antiproliferative activity against A2780 ovarian cells; format: cell-based
P. falciparum Dd2 = format: cell-based, Plasmodium falciparum; conditions: chloroquine-resistant Dd2 strain of P. falciparum
Caco-2 cancer cell line = conditions: cited from earlier work
HT-29 cancer cell line = conditions: cited from earlier work

Row | Structure (SMILES) | Activity against human A2780 cells (in words) (A2780 ovarian cells) | Antiplasmodial activity (in words) (P. falciparum Dd2) | Cytotoxicity IC50 Caco-2 (Caco-2 cancer cell line) | Cytotoxicity IC50 HT-29 (HT-29 cancer cell line) | IC50 (Caco-2 cancer cell line; read-out: Cytotoxicity IC50 Caco-2, Caco-2 cancer cell line) [µM] | IC50 (HT-29 cancer cell line; read-out: Cytotoxicity IC50 HT-29, HT-29 cancer cell line) [µM]
1 | COc1c2c(cc3c1OCO3)[C@]13C=C[C@H](OC)C[C@H]1[N@](C2)C[C@H]3O [Compound 4, ambelline] | lack of activity | moderate to good antiplasmodial activity | – | – | – | –
2 | COc1c2c(cc3c1OCO3)[C@]13C=C[C@H](OC)C[C@H]1[N@](C2)C[C@H]3OC(C)=O [Compound 3, 11-O-acetylambelline] | – | – | inactive | inactive | – | –
3 | CC(=O)O[C@@H]1CC=C2CCN3Cc4cc5c(cc4[C@H]1[C@@H]23)OCO5 [Compound 5, acetylcaranine] | lack of activity | strong antiplasmodial activity; also recorded: moderate to good antiplasmodial activity | – | – | 29.5 | 19.2
4 | COC1=CC(=O)[C@@]23CCN(Cc4c2cc2c(c4OC)OCO2)[C@@H]3C1 [Compound 2, distichamine] | – | little inhibitory activity | – | – | – | –
